The series deals with rat liver. The experiment in a line: Safety animal testing: 3-month repeated oral administration, liver lesions. The format is in vivo. Conditions: male rats, repeated oral administration for 3 months; dose equivalent to 96 μgSe/kg BW for the human body.

For the compound `O=[Se](O)O` [sodium selenite], the liver lesions result is “caused liver lesions”.

The record behind these values is US12385076B2, “Preparation and application of high-activity and high-safety cardamine violifolia selenoprotein standard sample” (priority 2022, dated 2025).
